Results published in article PMC6712483, “BlsA Is a Low to Moderate Temperature Blue Light Photoreceptor in the Human Pathogen Acinetobacter baumannii” (Frontiers in Microbiology, 2019).

Target: T1, BlsA (dBlsA, His-BlsA) (Acinetobacter baumannii, UniProt V5VB82)
T1 construct: gene ycgF; short BLUF protein, recombinant His-tag fusion, purified as in Abatedaga et al. 2017; approximately 20 kDa; residues named Tyr7, Gln51, Trp78, Trp92
Assay: cofactor fluorescence emission and anisotropy (steady-state and time-resolved), UV-vis photocycle
Type: binding
Details: dark-adapted state; cofactor bound on purification; temperature series, compared with free FAD

T1 sequence (V5VB82 entry or part of it): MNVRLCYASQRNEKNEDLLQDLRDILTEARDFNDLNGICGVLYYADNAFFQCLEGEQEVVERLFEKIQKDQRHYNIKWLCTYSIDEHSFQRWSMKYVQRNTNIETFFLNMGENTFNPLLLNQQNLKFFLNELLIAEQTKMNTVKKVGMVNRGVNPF

## Cc1cc2nc3c(=O)[nH]c(=O)nc-3n(C[C@H](O)[C@H](O)[C@H](O)COP(=O)(O)OP(=O)(O)OC[C@H]3O[C@@H](n4cnc5c(N)ncnc54)[C@H](O)[C@@H]3O)c2cc1C [FAD]
  cofactor fluorescence emission and anisotropy (steady-state and time-resolved),: the steady-state anisotropy of the cofactor in dBlsA solutions is strongly decreased
